Test results reported in patent US10004716B2, “Therapeutic/ preventive agent containing coumarin derivative as active ingredient” (NIPPON ZOKI PHARMACEUTICAL CO., LTD., priority 2014, dated 2018).

Assays:
[1] = tested on: IL-1β gene expression; assay: Suppression of IL-1α-induced gene expression of inflammation-related factors in bovine cartilage pieces (real time PCR): IL-1β; type: cell-based; details: 20 μmol/L test substance 2 hours, then IL-1α 3 ng/mL 8 hours, n = 3
Protocol: (§1) Each 6 to 8 cartilage pieces (diameter: 4 mm) of bovine metacarpophalangeal joint were placed into each well of a 24-well plate and incubated for one night in 1 mL of a basal medium in a CO2 incubator which was set at 37° C. and 5% by volume of CO2. After that, they were incubated for 2 hours in a basal medium containing 20 μmol/L of a test substance and, after addition of human recombinant IL-1α (3 ng/mL) thereto, they were incubated for 8 hours more. After completion of the incubation, the culture medium was discarded, an RNA stabilizer was added to the cartilage pieces, the mixture was incubated at 4° C. for one night and the cartilage pieces were finely cut using scissors, placed into micro-tubes and stored with freezing until the extraction of RNA therefrom.
(§2) The cartilage pieces placed in the micro-tubes were pulverized using Tissue Lyser (QIAGEN) (at 25 Hz for 5 minutes; for two times), 1 mL of QIAzol Lysis Reagent (QIAGEN) was added thereto to suspend, 200 μL of chloroform was added thereto followed by mixing and the mixture was centrifuged (1500 rpm at 4° C.) to recover the supernatant liquid. Total RNA was extracted and purified using QIACube (QIAGEN) and RNeasy Micro Kit (QIAGEN). cDNA was prepared from the total RNA using Omniscript RT Kit (QIAGEN) and Oligo(dT)12-18 Primer (Invitrogen).
(§3) The cDNA synthesized from the total RNA extracted in the above (2) was used to measure the gene expression level of the inflammation-related factors [IL-1β, IL-6, COX-2 and iNOS (inducible nitric oxide synthase)] by a conventional real time PCR method using a fluorescent dye SYBR GREEN I (Roche Diagnostics) by a Light Cycler LC 480 (the same). A calibration curve was prepared by dilution of a PCR product quantified by a DNA quantitation kit (PicoGreen dsDNA Quantitiation Kit (Molecular Probes)) to an extent of 10^2˜10^7 copies/μL. From each of the resulting measured data, copy numbers per 10000 copies of glyceroaldehyde-3-phosphate dehydrogenase (GAPDH) which was an internal standard were calculated.

[2] = tested on: IL-6 gene expression; assay: Suppression of IL-1α-induced gene expression of inflammation-related factors in bovine cartilage pieces (real time PCR): IL-6; type: cell-based; details: 20 μmol/L test substance 2 hours, then IL-1α 3 ng/mL 8 hours, n = 3
Protocol: as §1, §2, §3

[3] = tested on: COX-2 gene expression; assay: Suppression of IL-1α-induced gene expression of inflammation-related factors in bovine cartilage pieces (real time PCR): COX-2; type: cell-based; details: 20 μmol/L test substance 2 hours, then IL-1α 3 ng/mL 8 hours, n = 3
Protocol: as §1, §2, §3

[4] = tested on: monocyte chemotactic protein (MCP)-1 gene expression; assay: Suppression of LPS-induced gene expression of inflammation-related factors in THP-1 cells (real time PCR): MCP-1; type: cell-based, human; details: PMA-differentiated THP-1 cells; test substance 12.5 μmol/mL 2 hours, then LPS 10 mg/mL 3 hours; n = 3
Protocol: THP-1 cells were subjected to induction of differentiation for 72 hours with PMA (phorbol 12-myristate 13-acetate; 100 nM/L) and then the THP-1 cells (5×10^5 cells/mL) were incubated for 24 hours in a RPMI 1640+10% FCS culture solution in a 24-well plate. After that, a test substance was added so as to make the final concentration 12.5 μmol/mL followed by conducting the preincubation for 2 hours, a lipopolysaccharide (LPS) was then added thereto so as to make the final concentration 10 mg/mL and, after 3 hours, the cells were recovered.
QIAzol Lysis Reagent (QIAGEN) (1 mL) was added to the above to suspend, 200 μL of chloroform was added thereto followed by mixing and centrifugation (at 4° C. and 1500 rpm) was conducted whereby the supernatant liquid was recovered. Total RNA was extracted and purified by treating the supernatant liquid with QIACube (QIAGEN) and RNeasy Micro Kit (QIAGEN). cDNA was prepared from the total RNA using Omniscript RT kit (QIAGEN) and Oligo(dT)12-18 Primer (Invitrogen).
(§4) Gene expression level of the inflammation-related factors [IL-1β, IL-6 and monocyte chemotactic protein (MCP)-1] was measured by a conventional real time PCR method using a fluorescent dye SYBR GREEN I (Roche Diagnostics) by Light Cycler LC 480 (the same) using cDNA synthesized from the total RNA extracted in the above (2). A calibration curve was prepared by diluting the PCR product quantified by PicoGreen dsDNA Quantitation kit (Molecular probes) (a DNA quantitation kit) to an extent of 10^2˜10^7 copies/μL. From each of the resulting quantified values, copy numbers per 10000 copies of GAPDH gene being an internal standard were calculated.

[5] = tested on: connective tissue growth factor (CTGF) gene expression; assay: Evaluation I: TGF-β-induced gene expression of fibrosis-related factors in NHLF cells: CTGF; type: cell-based, human; details: 25 μmol/L test substance 2 hours, then TGF-β 5 ng/mL 24 hours, n = 3
Protocol: (§5) NHLF cells were sown so as to make their amount 4×10^4 cells/well to each well of a 12-well plate and incubated to an extent of 80% confluent in a medium where fibroblast growth medium 2 supplement mix (FGM-2 SingleQuots, Lonza) was added to a fibroblast basal medium (FBM, Lonza). After that, incubation was conducted for 2 hours in a Dulbecco modified Eagle medium (DMEM) containing 25 μmol/L of a test substance and, after addition of […] growth factor (TGF)-β thereto so as to make its final concentration 5 ng/mL, incubation was carried out for 24 hours more.
(§6) QIAzol Lysis Reagent (QIAGEN) (1 mL) was added to the above to suspend, 200 μL of chloroform was added thereto followed by mixing and centrifugation (at 4° C. and 1500 rpm) was then conducted whereby the supernatant liquid was recovered. Total RNA was extracted and purified by treating the supernatant liquid with QIACube (QIAGEN) and RNeasy Micro Kit (QIAGEN). cDNA was prepared from the total RNA using Omniscript RT kit (QIAGEN) and Oligo(dT)12-18 Primer (Invitrogen).
as §4, with “fibrosis-related” for “inflammation-related”, “[connective tissue growth factor (CTGF), α-smooth muscle actin (SMA), fibronectin, endothelin” for “[IL-1β, IL-6”, “type I collagen (Col 1)]” for “monocyte chemotactic protein (MCP)-1]”

[6] = tested on: α-smooth muscle actin (SMA) gene expression; assay: Evaluation I: TGF-β-induced gene expression of fibrosis-related factors in NHLF cells: α-SMA; type: cell-based, human; details: 25 μmol/L test substance 2 hours, then TGF-β 5 ng/mL 24 hours, n = 3
Protocol: as §5, §6
as §4, with “fibrosis-related” for “inflammation-related”, “[connective tissue growth factor (CTGF), α-smooth muscle actin (SMA), fibronectin, endothelin” for “[IL-1β, IL-6”, “type I collagen (Col 1)]” for “monocyte chemotactic protein (MCP)-1]”

[7] = tested on: fibronectin gene expression; assay: Evaluation I: TGF-β-induced gene expression of fibrosis-related factors in NHLF cells: fibronectin; type: cell-based, human; details: 25 μmol/L test substance 2 hours, then TGF-β 5 ng/mL 24 hours, n = 3
Protocol: as §5, §6
as §4, with “fibrosis-related” for “inflammation-related”, “[connective tissue growth factor (CTGF), α-smooth muscle actin (SMA), fibronectin, endothelin” for “[IL-1β, IL-6”, “type I collagen (Col 1)]” for “monocyte chemotactic protein (MCP)-1]”

[8] = tested on: endothelin gene expression; assay: Evaluation I: TGF-β-induced gene expression of fibrosis-related factors in NHLF cells: endothelin; type: cell-based, human; details: 25 μmol/L test substance 2 hours, then TGF-β 5 ng/mL 24 hours, n = 3
Protocol: as §5, §6
as §4, with “fibrosis-related” for “inflammation-related”, “[connective tissue growth factor (CTGF), α-smooth muscle actin (SMA), fibronectin, endothelin” for “[IL-1β, IL-6”, “type I collagen (Col 1)]” for “monocyte chemotactic protein (MCP)-1]”

SMILES	Copy Numbers per 10000 Copies of GAPDH IL-1β [1]	Copy Numbers per 10000 Copies of GAPDH IL-6 [2]	Copy Numbers per 10000 Copies of GAPDH COX-2 [3]	Copy Numbers per 10000 Copies of GAPDH MCP-1 [4]	Copy Numbers per 10000 Copies of GAPDH CTGF [5]	Copy Numbers per 10000 Copies of GAPDH α-SMA [6]	Copy Numbers per 10000 Copies of GAPDH Fibronectin [7]	Copy Numbers per 10000 Copies of GAPDH Endothelin [8]
O=c1oc2c(OS(=O)(=O)c3ccc(C(F)(F)F)cc3)cccc2cc1NS(=O)(=O)c1cccc(C(F)(F)F)c1 [Compound 57, 2-Oxo-3-[[3-(trifluoromethyl)phenyl]sulfonylamino]-chromen-8-yl 4-(trifluoromethyl)benzenesulfonate]	144.8 copies per 10000 copies of GAP	7749.8 copies per 10000 copies of GAP	1420.8 copies per 10000 copies of GAP	1001.3 copies per 10000 copies of GAP	8963.4 copies per 10000 copies of GAP	1166.3 copies per 10000 copies of GAP	21220.7 copies per 10000 copies of GAP	8.2 copies per 10000 copies of GAP
O=c1oc2c(OS(=O)(=O)c3cccc(Br)c3)cccc2cc1NS(=O)(=O)c1cccc(C(F)(F)F)c1 [Compound 60, 2-Oxo-3-[[3-(trifluoromethyl)phenyl]sulfonylamino]-chromen-8-yl 3-bromobenzenesulfonate]	170.6 copies per 10000 copies of GAP	9277.4 copies per 10000 copies of GAP	920.6 copies per 10000 copies of GAP	1787.5 copies per 10000 copies of GAP	13992.0 copies per 10000 copies of GAP	1324.8 copies per 10000 copies of GAP	30000.8 copies per 10000 copies of GAP	16.9 copies per 10000 copies of GAP
O=c1oc2c(OS(=O)(=O)c3cccc(C(F)(F)F)c3)cccc2cc1NS(=O)(=O)c1ccc(C(F)(F)F)cc1 [Compound 68, 2-Oxo-3-[[4-(trifluoromethyl)phenyl]sulfonylamino]-chromen-8-yl 3-(trifluoromethyl)benzenesulfonate]	175.1 copies per 10000 copies of GAP	16195.2 copies per 10000 copies of GAP	1655.9 copies per 10000 copies of GAP	823.5 copies per 10000 copies of GAP	10441.5 copies per 10000 copies of GAP	1007.1 copies per 10000 copies of GAP	26090.7 copies per 10000 copies of GAP	6.4 copies per 10000 copies of GAP
O=c1oc2c(OS(=O)(=O)c3ccc(C(F)(F)F)cc3)cccc2cc1NS(=O)(=O)c1cccc(Br)c1 [Compound 58, 3-[(3-Bromophenyl)sulfonylamino]-2-oxochromen-8-yl 4-(trifluoromethyl)benzenesulfonate]	157.8 copies per 10000 copies of GAP	9346.3 copies per 10000 copies of GAP	982.3 copies per 10000 copies of GAP	1040.9 copies per 10000 copies of GAP	5020.5 copies per 10000 copies of GAP	826.9 copies per 10000 copies of GAP	18665.2 copies per 10000 copies of GAP	7.6 copies per 10000 copies of GAP
